From patent US20250269039A1, “THERAPEUTIC-OLIGONUCLEOTIDES ACTIVATED BY NUCLEASES” (priority 2020, published 2025)

Key:
[1] = system: S. aureus ATCC 1707 (MRSA); experiment: Broth microdilution MIC and growth inhibition; format: cell-based, Staphylococcus aureus
Source text: (§1) Bacteria strains. S. aureus NCTC 12493 (MRSA), S. aureus ATCC 29213 (MSSA), S. aureus ATCC 43300 (MRSA), S. aureus ATCC 1707 (MRSA), S. aureus ATCC 1717 (MRSA), S. aureus ATCC 1747 (MRSA), S. aureus ATCC 1761 (MRSA), S. aureus ATCC 1766 (MRSA), S. aureus ATCC 1768 (MRSA), S. epidermidis ATCC 35984, E. coli ATCC 25922, K. pneumoniae ATCC 13883, P. mirabilis ATCC 25933, S. enterica ATCC 14028 and P. aeruginosa ATCC 10145 strains were used in this study. Bacteria were initially inoculated onto tryptone soy agar with 5% defibrinated sheep blood (Thermo Fisher Scientific, Inc., Waltham, MA, USA) and incubated at 37° C. for 24 hours. Then, single colonies of each strain were transferred to tryptone soy broth (Thermo Fisher Scientific) for the nuclease activity assay or antimicrobial susceptibility testing, respectively.
(§2) Antimicrobial susceptibility testing. Minimal inhibitory concentrations (MIC) of all nucleoside analogues and TOUCANs against each bacteria strain were determined using broth microdilution method. A single colony obtained from overnight culture on tryptone soy agar with 5% defibrinated sheep blood was inoculated in cation-adjusted Mueller Hinton Broth and adjusted to 10^6 CFU/mL. TOUCANs were prepared in PBS+/+ (treatment) and serial dilutions were made in 96-well polystyrene round bottom microwell plates with 50 μL final volume for each concentration. PBS+/+ was used as untreated control. Next, 50 μL bacteria solutions were added to each well to a final bacteria concentration of 5×10^5 CFU/mL. Plates were incubated at 37° C. in Cytation 1 Cell Imaging Multimode Reader. Growth curves were obtained by measuring optical densities at 600 nm every 10 minutes for 18 hours using Cytation 1 Cell Imaging Multimode Reader. In addition, visual inspection of the plates was carried out after 18 hours and photographs were taken. MICs were defined as the lowest drug concentration in the microwell at which bacterial growth was not visible at the end of the incubation period. Besides MIC determination, specificity of TOUCAN 7mGe was also shown with subcultures on chromogenic media. For this purpose, 5 μL of different concentrations of each strain were inoculated onto CHROM agar Orientation Media (Becton Dickinson) and the bacterial growth of each bacteria strain tested was observed by naked eye after incubation at 37° C. for 24 hours. Finally, photographs of the chromogenic media were taken.

[2] = system: S. aureus ATCC 1717 (MRSA); experiment: Broth microdilution MIC and growth inhibition; format: cell-based, Staphylococcus aureus
Source text: as §1, §2

[3] = system: S. aureus ATCC 1747 (MRSA); experiment: Broth microdilution MIC and growth inhibition; format: cell-based, Staphylococcus aureus
Source text: as §1, §2

[4] = system: S. aureus ATCC 1761 (MRSA); experiment: Broth microdilution MIC and growth inhibition; format: cell-based, Staphylococcus aureus
Source text: as §1, §2

[5] = system: S. aureus ATCC 1766 (MRSA); experiment: Broth microdilution MIC and growth inhibition; format: cell-based, Staphylococcus aureus; settings: S. aureus ATCC 1766 (MRSA)
Source text: as §1, §2

[6] = system: S. aureus ATCC 1768 (MRSA); experiment: Broth microdilution MIC and growth inhibition; format: cell-based, Staphylococcus aureus
Source text: as §1, §2

[7] = system: S. aureus ATCC 29213 (MSSA); experiment: Broth microdilution MIC and growth inhibition; format: cell-based, Staphylococcus aureus; settings: S. aureus ATCC 29213 (MSSA)
Source text: as §1, §2

[8] = system: S. aureus ATCC 43300 (MRSA); experiment: Broth microdilution MIC and growth inhibition; format: cell-based, Staphylococcus aureus
Source text: as §1, §2

[9] = system: S. aureus NCTC 12493 (MRSA); experiment: Broth microdilution MIC and growth inhibition; format: cell-based, Staphylococcus aureus; settings: for growth inhibition, dose response: NCTC-12493 (MRSA), FIG. 5a-b
Source text: as §1, §2

[10] = system: S. epidermidis ATCC 35984; experiment: Broth microdilution MIC and growth inhibition (control bacteria); format: cell-based, Staphylococcus epidermidis
Source text: as §1, §2

E. coli ATCC 25922 = experiment: as above; format: cell-based, Escherichia coli
Source text: as §1, §2

K. pneumoniae ATCC 13883 = experiment: as above; format: cell-based
Source text: as §1, §2

P. aeruginosa ATCC 10145 = experiment: as above; format: cell-based
Source text: as §1, §2

S. enterica ATCC 14028 = experiment: as above; format: cell-based
Source text: as §1, §2

P. mirabilis ATCC 25933 = experiment: as above; format: cell-based, Proteus mirabilis
Source text: as §1, §2

S. aureus [11] = experiment: Growth inhibition curves / MICs in S. aureus cultures (strain not named or summary over strains); format: cell-based, Staphylococcus aureus
Method: as §2

S. aureus [12] = experiment: Specificity study by visual inspection on chromogenic media, targeted bacteria; format: cell-based, Staphylococcus aureus; settings: FIG. 1e
Method: as §2, with “For this purpose, 5 μL of different concentrations of each strain were inoculated onto CHROM agar Orientation Media (Becton Dickinson) and the bacterial growth of each bacteria strain tested was observed by naked eye after incubation at 37° C. for 24 hours. Finally, photographs of the chromogenic media were taken.” left out

[13] = system: other pathogenic bacteria; experiment: Specificity study by visual inspection on chromogenic media, non-targeted control bacteria; format: cell-based; settings: all concentrations tested, FIG. 1e
Method: as §2, with “For this purpose, 5 μL of different concentrations of each strain were inoculated onto CHROM agar Orientation Media (Becton Dickinson) and the bacterial growth of each bacteria strain tested was observed by naked eye after incubation at 37° C. for 24 hours. Finally, photographs of the chromogenic media were taken.” left out

[14] = system: Pancreatic cancer cells (ASPC-1); experiment: Anti-cancer drug susceptibility testing, pancreatic cancer cells, 72 h; format: cell-based; settings: 72 h cultures; Gemcitabine alone, TOUCAN 7mGe spiked with MN; FIG. 13
Method: (§3) Anti-cancer drug susceptibility testing for TOUCAN 7mGe. Gemcitabine and equivalent 7mGe solutions were prepared as explained before. Then, 7mGe was pre-exposed to 10 μl of 10 U MN for 1 hour at 37° C. (7mGe+MN). 100 μl of both drugs (Gemcitabine and 7mGe+MN) were added to the related wells and serially diluted using PBS+/+making the final concentrations between 100-2 μg/μl. Breast cancer cells (MDAMB231) and Pancreatic cancer cells (ASPC-1) were prepared as 10.000 cells/ml and 100 μl cell suspensions were added to each well. The plate was incubated at 37° C. for 72 hours. At 48th hour of incubation, 100 μl CyQUANT® Direct Cell Proliferation Assay kit was added to each well. Cell counts and images were taken at the end of 72 hours incubation period using Cytation 1 Cell Imaging Multi-Mode Reader.

[15] = system: Breast cancer cells (MDAMB231); experiment: Anti-cancer drug susceptibility testing, breast cancer cells, 72 h; format: cell-based; settings: 72 h of treatment; Gemcitabine alone, TOUCAN 7mGe spiked with MN; FIG. 14
Method: as §3

Q: mU-mU-mU-mU-T-T-Ge [TOUCAN 7mGe] was tested. Which MIC ([1]; 18 h, TOUCAN as NA equivalent) did it give?
A: >40 µg/mL

Q: What about the “TOUCAN % Growth inhibition” value ([1]; mean ± SD, n = 3) of the same substance?
A: 61.5 ± 0.5%

Q: What about the MIC ([2]; 18 h, TOUCAN as NA equivalent) of the same substance?
A: >40 µg/mL

Q: What about the “TOUCAN % Growth inhibition” value ([2]; mean ± SD, n = 3) of the same substance?
A: 72.9 ± 1.2%

Q: And the MIC ([3]; 18 h, TOUCAN as NA equivalent)?
A: >40 µg/mL

Q: And the “TOUCAN % Growth inhibition” value ([3]; mean ± SD, n = 3)?
A: 44.9 ± 0.7%

Q: What about the “TOUCAN MIC/NA MIC TOUCAN Efficacy Ratio (TER)” value [4] of the same substance?
A: 2500

Q: And the MIC ([4]; 18 h, TOUCAN as NA equivalent)?
A: 40 µg/mL

Q: And the “TOUCAN % Growth inhibition” value ([4]; mean ± SD, n = 3)?
A: 90.1%

Q: What about the MIC ([5]; 18 h, TOUCAN as NA equivalent) of the same substance?
A: >40 µg/mL

Q: And the “TOUCAN % Growth inhibition” value ([5]; mean ± SD, n = 3)?
A: 86.2 ± 0.9%

Q: And the MIC ([6]; 18 h, TOUCAN as NA equivalent)?
A: >40 µg/mL

Q: And the “TOUCAN % Growth inhibition” value ([6]; mean ± SD, n = 3)?
A: 61.9 ± 1.1%

Q: And the MIC ([7]; 18 h, TOUCAN as NA equivalent)?
A: >40 µg/mL

Q: What about the “TOUCAN % Growth inhibition” value ([7]; mean ± SD, n = 3) of the same substance?
A: 52.5 ± 1.1%

Q: And the MIC ([8]; 18 h, TOUCAN as NA equivalent)?
A: >40 µg/mL

Q: What about the “TOUCAN % Growth inhibition” value ([8]; mean ± SD, n = 3) of the same substance?
A: 66.6 ± 1.6%

Q: What about the “growth inhibition, dose response” value ([9]; 1.25 and 2.5 g/mL) of the same substance?
A: partial effect

Q: And the “growth inhibition, dose response” value ([9]; concentrations from 5 to 40 μg/mL)?
A: 96%

Q: And the “TOUCAN MIC/NA MIC TOUCAN Efficacy Ratio (TER)” value ([9]; S. aureus NCTC 12493 (MRSA))?
A: 1250

Q: And the MIC ([9]; S. aureus NCTC 12493 (MRSA), 18 h, TOUCAN as NA equivalent)?
A: 5 µg/mL

Q: What about the “TOUCAN % Growth inhibition” value ([9]; S. aureus NCTC 12493 (MRSA), mean ± SD, n = 3) of the same substance?
A: 85.3%

Q: And the “associated toxicity to non-targeted bacteria” value ([10]; S. epidermidis (control), FIG. 1d)?
A: minimal associated toxicity

Q: And the MIC ([10]; S. epidermidis ATCC 35984, 18 h, TOUCAN as NA equivalent)?
A: >40 µg/mL

Q: What about the “TOUCAN % Growth inhibition” value ([10]; S. epidermidis ATCC 35984, mean ± SD, n = 3) of the same substance?
A: 3.6 ± 2.0%

Q: And the “growth inhibition, dose response” value ([10]; S. epidermidis, all concentrations tested, FIG. 5)?
A: No growth inhibition

Q: And the MIC (E. coli ATCC 25922; 18 h, TOUCAN as NA equivalent)?
A: >40 µg/mL

Q: What about the “TOUCAN % Growth inhibition” value (E. coli ATCC 25922; mean ± SD, n = 3) of the same substance?
A: 0 ± 0.00%

Q: What about the MIC (K. pneumoniae ATCC 13883; 18 h, TOUCAN as NA equivalent) of the same substance?
A: >40 µg/mL

Q: And the “TOUCAN % Growth inhibition” value (K. pneumoniae ATCC 13883; mean ± SD, n = 3)?
A: 4.9 ± 3.1%

Q: And the MIC (P. aeruginosa ATCC 10145; 18 h, TOUCAN as NA equivalent)?
A: >40 µg/mL

Q: And the “TOUCAN % Growth inhibition” value (P. aeruginosa ATCC 10145; mean ± SD, n = 3)?
A: 0 ± 0.00%

Q: What about the MIC (S. enterica ATCC 14028; 18 h, TOUCAN as NA equivalent) of the same substance?
A: >40 µg/mL

Q: And the “TOUCAN % Growth inhibition” value (S. enterica ATCC 14028; mean ± SD, n = 3)?
A: 12.5 ± 5.7%

Q: What about the MIC (P. mirabilis ATCC 25933; 18 h, TOUCAN as NA equivalent) of the same substance?
A: >40 µg/mL

Q: And the “TOUCAN % Growth inhibition” value (P. mirabilis ATCC 25933; mean ± SD, n = 3)?
A: 8.3 ± 0.6%

Q: What about the growth inhibition (S. aureus [11]; S. aureus (target), FIG. 1d) of the same substance?
A: high growth inhibition

Q: And the bacterial growth inhibition (S. aureus [11]; S. aureus cultures, optical density (OD) over 18 h, FIG. 1b)?
A: 96%

Q: And the “inhibition of bacterial growth (therapeutic efficacy)” value (S. aureus [11]; combinations of the R-S-D moieties, FIG. 1c)?
A: more than 99%

Q: What about the “inhibition on chromogenic media” value (S. aureus [12]; 5 μg/mL) of the same substance?
A: partially inhibited

Q: And the “inhibition on chromogenic media” value (S. aureus [12]; 10 and 20 μg/mL)?
A: completely inhibited

Q: What about the “viability on chromogenic media” value [13] of the same substance?
A: remained viable

Q: What about the “killing of pancreatic cancer cells (viability)” value [14] of the same substance?
A: efficient in killing

Q: What about the “therapeutic effect in breast cancer cells (viability)” value [15] of the same substance?
A: slightly higher
